Test results: publication PMC8765781, “A platform of assays for the discovery of anti-Zika small-molecules with activity in a 3D-bioprinted outer-blood-retina model” (PLoS ONE, 2022)
Where two headings read alike, the source gives them in different places. *1 amine or outer side, *2 acyl side, *3 side chain or, on linkers, in order; H or OH if unused. Where a SMILES comes first, the peptide text is derived from it. [ ]: non-standard residue; d: D form. X3 = CC(CC(O[*:1])C(=O)[*:2])C(=O)O; NMeV = CN[CH](C(=O)O)C(C)C; NMeA = CN[CH](C)C(=O)O; βAla = NCCC(=O)O

Key:
[1] = system: ZIKV-RLuc (Cambodian strain FSS13025); test: microbe, parasite or virus in culture; format: cell-based, Zika virus; settings: for AC50: Zika virus, Vero
[2] = system: wild-type ZIKV (Ugandan MR766 strain) in Vero cells; test: ZIKV cytopathic effect (CPE) inhibition qHTS assay, CellTiter-Glo readout; format: cell-based, Zika virus
[3] = Zika virus, Vero, read-out: Log AC50 (M) (converted)

| SMILES | CC-v2 (curve class classification v2 of the dose response curve) [1] | Efficacy (difference between neutral response and maximum compound response) [1] | Max Resp (difference between neutral response and compound response for highest compound concentration) [1] | Efficacy [2] | AC50 ([2]; Zika virus, Vero) | AC50 [2, 3] | also measured |
| --- | --- | --- | --- | --- | --- | --- | --- |
| CC(C)COCC(CN(Cc1ccccc1)c1ccccc1)N1CCCC1 (stereo not drawn) [NCGC00015155-11] | -2.2 | -53.208 | -86.237 |  |  |  |  |
| COc1cc2nc(N3CCN(C(=O)c4ccco4)CC3)nc(N)c2cc1OC [NCGC00016740-18] |  |  | -5.44 |  |  |  |  |
| CN1CCN(CCCN2c3ccccc3Sc3ccc(S(=O)(=O)N(C)C)cc32)CC1.CS(=O)(=O)O.CS(=O)(=O)O [NCGC00017040-01] | 4 | -28.971 | -22.476 |  |  |  |  |
| CCN(CC)Cc1cc(Nc2ccnc3cc(Cl)ccc23)ccc1O [NCGC00017063-03] | 4 | 28.757 | 20.219 |  |  |  |  |
| CCOc1cc(N)c(Cl)cc1C(=O)NCC1CN(Cc2ccc(F)cc2)CCO1 (stereo not drawn) [NCGC00160527-05] | 4 | -16.441 | -14.706 |  |  |  |  |
| CN1CCC(=C2c3ccccc3CCc3sccc32)CC1 [NCGC00163169-02] | 4 | 14.14 | -9.44 |  |  |  |  |
| Cc1cccc(C)c1OCC(=O)N[C@@H](Cc1ccccc1)[C@@H](O)C[C@H](Cc1ccccc1)NC(=O)[C@H](C(C)C)N1CCCNC1=O [NCGC00164576-04] | 4 |  | -20.627 |  |  |  |  |
| CCCCCCCCCCC[C@@H](C[C@@H]1OC(=O)[C@H]1CCCCCC)OC(=O)C(CC(C)C)NC=O (stereo partly drawn) [NCGC00165856-03] | -3 | 0 | -33.733 |  |  |  |  |
| CC[C@@]1([C@@H]2O[C@@H]([C@H]3O[C@@](O)(CO)[C@H](C)C[C@@H]3C)C[C@@H]2C)CC[C@H]([C@]2(C)CC[C@]3(C[C@H](O)[C@@H](C)[C@@H]([C@@H](C)[C@@H](OC)[C@H](C)C(=O)O)O3)O2)O1 [NCGC00179454-04] | 4 | 29.905 | -20.473 |  |  |  |  |
| CC1(C)C=Cc2c(ccc(C(=O)/C=C/c3ccccc3)c2O)O1 [NCGC00187466-03] | 4 |  | -35.49 |  |  |  |  |
| CC[C@@H]1C(=O)N(C)c2cnc(Nc3ccc(C(=O)NC4CCC(N5CCN(CC6CC6)CC5)CC4)cc3OC)nc2N1C(C)C (stereo partly drawn) [NCGC00263087-01] | 4 | 12.227 | 10.387 |  |  |  |  |
| CC(C)(N)C(=O)N[C@H](COCc1ccccc1)C(=O)N1CCC2(CC1)CN([S+](C)(=O)[O-])c1ccccc12 [NCGC00263115-01] | 4 | -25.4 | -0.591 |  |  |  |  |
| CCCCc1ccc(N[S+](=O)([O-])c2ccc(C)c(C(=O)N3CCN(c4cccc(C)c4C)CC3)c2)cc1 [NCGC00263234-01] | -3 | -38.307 | -30.256 |  |  |  | AC50 [1]: 7.59e-05 M; AC50 ([1]; read-out: Log AC50 (M) (converted)): 7.59e-05 M |
| COc1ccc(/C=C/C(=O)/C=C/c2ccc(OC)cc2)cc1 [NCGC00336197-02] | 3 | 41.267 | 6.905 |  |  |  |  |
| CCc1ccc(C(=O)Nc2cc(CN3CCN(C)CC3)cc(C(F)(F)F)c2)cc1C#Cc1cnc2ccnn2c1 [NCGC00347217-02] | -3 | -116.826 | -100.407 |  |  |  |  |
| CN(C)c1cccc(-c2c3c(=O)n(-c4ccccc4Cl)[nH]c3cc(=O)n2C)c1 [NCGC00378460-01] | 4 | 10.267 | 14.909 |  |  |  |  |
| CCC(C)C1NC(=O)C2CCCN2C(=O)C(CC(C)C(=O)O)OC(=O)CCNC(=O)C(C)N(C)C(=O)C(C(C)C)N(C)C1=O (stereo not drawn) [NCGC00380598-01] (cyclo([X3]PI[NMeV][NMeA][βAla]); configuration not given here) | 4 | -20.973 | -24.561 |  |  |  |  |
| CC1OC(OC2C(c3c(O)cc(OC4OC(CO)C(O)C(O)C4O)c4c(=O)cc(-c5ccc(O)cc5)oc34)OC(CO)C(O)C2O)C(O)C(O)C1O (stereo not drawn) [NCGC00384535-01] | 4 |  | -6.059 |  |  |  |  |
| COc1c(O)c(C(=O)/C=C/c2ccccc2)c(OC)c(OC)c1OC [NCGC00384644-01] | 4 |  | -2.089 |  |  |  |  |
| CCOCCn1nc(CC)c2nc(N3CCC(C(=O)O)CC3)nc(Nc3cc(C)ccn3)c21 [NCGC00386619-01] |  |  |  | -25.995 | 4.11e-05 M | 4.11e-05 M |  |

| SMILES | CC-v2 (curve class classification v2 of the dose response curve) [1] | Efficacy (difference between neutral response and maximum compound response) [1] | Max Resp (difference between neutral response and compound response for highest compound concentration) [1] | Efficacy [2] | AC50 ([2]; Zika virus, Vero) | AC50 [2, 3] | also measured |
| --- | --- | --- | --- | --- | --- | --- | --- |
| CC(C)C[C@H](CO)Nc1nc(S[C@@H](C)c2ccccc2)nc2nc(N)sc12 [NCGC00386735-01] |  |  |  | -23.549 | 5.17e-05 M | 5.17e-05 M |  |
| C=C(C)[C@@H]1CC=C(COC(=O)NC(=O)c2ncn3c(=O)n(C)nnc23)CC1 [NCGC00386754-01] |  |  |  | -41.908 | 6.51e-05 M | 6.51e-05 M | CC-v2 (curve class classification of the dose response curve) [2]: -3 |
| Cc1cc(N2CCN(C(=O)Oc3ccc(-c4ccccc4)cn3)CC2)c2ccccc2n1 [NCGC00386928-01] |  |  |  | -62.282 |  |  | CC-v2 (curve class classification of the dose response curve) [2]: -3 |
| Cc1cc(C(=O)Nc2cc(Nc3ccc4c(/C=C/c5ccccn5)[nH]nc4c3)ccc2F)n(C)n1 [NCGC00387023-01] |  |  |  | -55.32 | 3.66e-05 M | 3.66e-05 M |  |
| CC1(C)CC=C(C#Cc2ccccc2)c2cc(/C=C/c3ccc(C(=O)O)cc3)ccc21 [NCGC00387103-01] |  |  |  | -97.274 | 5.17e-05 M | 5.17e-05 M | CC-v2 (curve class classification of the dose response curve) [2]: -2.2 |
| CCOC(=O)C1=C(N)Oc2ccc(Cl)cc2C1C(C#N)C(=O)OCC (stereo not drawn) [NCGC00387181-02] |  |  |  | -45.481 | 3.66e-05 M | 3.66e-05 M | CC-v2 (curve class classification of the dose response curve) [2]: -2.2 |
| Cc1cc(C(=O)Nc2cccc(C(=O)Nc3cccc(C(F)(F)F)c3)c2)on1 [NCGC00387256-02] |  |  |  | -18.226 | 7.31e-05 M | 7.31e-05 M |  |
| Cc1cc2c(F)c(Oc3ncnn4cc(OCC(C)OC(=O)C(C)N)c(C)c34)ccc2[nH]1 (stereo not drawn) [NCGC00389340-01] |  |  |  | -57.426 |  |  | Curve class [2]: -3; Emax ([2]; Zika virus, Vero, read-out: Max response): -49.7% |
| Cc1cc(OCCC[S+](C)(=O)[O-])cc(C)c1-c1cccc(COc2ccc3c(c2)OCC3CC(=O)O)c1 (stereo not drawn) [NCGC00389617-01] |  |  |  | -41.849 | 2.31e-05 M | 2.31e-05 M | CC-v2 (curve class classification of the dose response curve) [2]: -3 |
| Cc1cc2c(F)c(Oc3ncnn4cc(OCC(C)O)c(C)c34)ccc2[nH]1 (stereo not drawn) [NCGC00389770-01] |  |  |  | -29.933 | 6.51e-05 M | 6.51e-05 M |  |
| COc1cc(N(C)CCN(C)C)c(N)cc1Nc1nccc(-c2cn(C)c3ccccc23)n1 [NCGC00390638-01] |  |  |  | -48.353 | 6.51e-05 M | 6.51e-05 M | CC-v2 (curve class classification of the dose response curve) [2]: -3 |
| CCC(=C(c1ccc(OCCN2CCCC2)cc1)c1ccc(OCCN2CCCC2)cc1)c1ccccc1 [NCGC00408918-01] |  |  |  | -39.621 | 5.8e-05 M | 5.8e-05 M | CC-v2 (curve class classification of the dose response curve) [2]: -3 |
| C=CC(=O)N1CCCN(c2cc(NCCC(=O)O)nc(-c3ccccn3)n2)CC1 [NCGC00420854-01] |  |  |  | -33.164 | 5.8e-05 M | 5.8e-05 M |  |
| C=Cc1cc2oc(-c3ccc(O)c(F)c3)nc2cc1O [NCGC00485115-01] |  |  |  | -24.649 | 6.51e-05 M | 6.51e-05 M |  |
| COC(=O)C1=C(C)NC(C)=C(C(=O)OC)C1c1cccc(NC(=O)NCCCN2CCC(c3cccc(OC)c3)CC2)c1 [NCGC00485144-01] |  |  |  | -27.731 | 7.31e-05 M | 7.31e-05 M |  |
| C[C@H]1CCC[C@H](O)CCC/C=C/c2cc(O)cc(O)c2C(=O)O1 [NCGC00485224-01] |  |  |  | -58.539 | 6.51e-05 M | 6.51e-05 M | CC-v2 (curve class classification of the dose response curve) [2]: -3 |
| C[C@@]1(O)[C@H](O)[C@@H](CO)O[C@H]1n1cnc2c(=O)[nH]c(N)nc21 [NCGC00485409-01] |  |  |  | -27.977 | 3.66e-05 M | 3.66e-05 M |  |
| O=C(O)c1ccc2c(c1)nc(Nc1cccc(Cl)c1)c1ccncc12 [NCGC00485907-01] |  |  |  | -41.903 | 6.51e-05 M | 6.51e-05 M |  |
| C/C(=N\NC(=N)N)c1cc(NC(=O)CCCCCCCCC(=O)Nc2cc(/C(C)=N/NC(=N)N)cc(/C(C)=N/NC(=N)N)c2)cc(/C(C)=N/NC(=N)N)c1 [NCGC00487056-01] |  |  |  | -56.895 | 5.8e-05 M | 5.8e-05 M | CC-v2 (curve class classification of the dose response curve) [2]: -2.2 |
